For one experiment, the target named is T1, BRAF V600E (Homo sapiens, UniProt P15056, V600E).
T1 construct: expressed in transfected cells
Briefly: Cellular assay of target protein degradation, T-Rex 293 cells stably transfected with HA-BRAF_V600E (HA immunofluorescence, high content imaging). The experiment is classed as cell-based. The settings on record: T-Rex 293 HA-BRAF V600E; for DC50: half maximal degradation, read-out: BRaf V600E DC50; for Dmax: maximum degradation observed. A digest of the protocol:
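24 h compound exposure, 1 μM–0.1 nM final, 0.1% DMSO, 37 °C; cells induced with 1 ng/mL doxycycline. PFA fix, Triton permeabilize, anti-HA overnight 4 °C, Hoechst/phalloidin counterstain. Output: DC50, Dmax as % control.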

For the next experiment, the target named is T2, BRAF G466V (Homo sapiens, UniProt P15056, G466V).
T2 construct: expressed in transfected cells
T2 sequence (P15056 whole entry G466V): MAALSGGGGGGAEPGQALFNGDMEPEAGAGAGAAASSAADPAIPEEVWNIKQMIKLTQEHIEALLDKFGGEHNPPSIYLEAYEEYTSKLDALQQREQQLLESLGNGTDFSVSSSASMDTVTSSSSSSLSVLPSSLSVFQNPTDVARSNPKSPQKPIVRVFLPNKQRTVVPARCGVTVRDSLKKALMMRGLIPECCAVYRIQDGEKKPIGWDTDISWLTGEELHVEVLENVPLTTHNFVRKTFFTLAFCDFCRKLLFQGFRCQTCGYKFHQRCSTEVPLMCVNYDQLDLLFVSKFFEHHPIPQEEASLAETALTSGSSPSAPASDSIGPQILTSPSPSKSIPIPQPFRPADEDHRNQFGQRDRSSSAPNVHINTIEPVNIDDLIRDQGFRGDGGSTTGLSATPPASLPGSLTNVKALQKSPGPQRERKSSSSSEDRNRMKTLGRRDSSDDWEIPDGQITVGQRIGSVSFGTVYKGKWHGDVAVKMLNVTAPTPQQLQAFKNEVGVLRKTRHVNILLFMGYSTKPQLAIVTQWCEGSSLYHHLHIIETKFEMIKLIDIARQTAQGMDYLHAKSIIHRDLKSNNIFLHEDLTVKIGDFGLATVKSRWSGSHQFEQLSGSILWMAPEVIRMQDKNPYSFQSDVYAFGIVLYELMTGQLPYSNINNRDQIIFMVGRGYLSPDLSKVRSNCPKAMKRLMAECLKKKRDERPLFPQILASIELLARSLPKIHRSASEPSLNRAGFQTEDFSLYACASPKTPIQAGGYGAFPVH
Description: Cellular assay of target protein degradation, T-Rex 293 cells stably transfected with HA-BRAF G466V (HA immunofluorescence, high content imaging). The experiment is classed as cell-based. Conditions: T-Rex 293 HA-BRAF G466V; for DC50: half maximal degradation, read-out: BRaf G466V DC50; for Dmax: maximum degradation observed. The method, boiled down: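 24 h compound, 30 nM–3 pM final, 0.1% DMSO, 37° C; HA-BRAF G466V induced with 0.75 ng/mL doxycycline. PFA fix, Triton perm, anti-HA + Alexa fluor secondary, Hoechst/phalloidin counterstain; imaging. DC50, Dmax (% of control).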

T1 sequence (P15056 whole entry V600E): as the sequence (P15056 whole entry G466V) above, with V466G, V600E counted along it

A word on the DC50: it is the concentration giving 50% degradation. The term Dmax denotes the largest share of the target that was removed. The low end stands for a partial loss of target, the high end for a fuller loss of target. `CN(C1CC1)S(=O)(=O)Nc1ccc(F)c(C(=O)c2c[nH]c3ncc(-c4ccc(N5CCC(CN6CCC(c7ccc8c(c7)CN([C@H]7CCC(=O)NC7=O)C8=O)CC6)CC5)cc4)cc23)c1F` [Compound 281, (3S)-3-(5-{1-[(1-{4-[3-(3-{[cyclopropyl(methyl)sulfamoyl]amino}-2,6-difluorobenzoyl)-1H-pyrrolo[2,3-b]pyridin-5-yl]phenyl}piperidin-4-yl)methyl]piperidin-4-yl}-1-oxo-2,3-dihydro-1H-isoindol-2-yl) piperidine-2,6-dione]: at BRAF V600E, the DC50 is 5 to 50 nM and the Dmax lay within 35 to 70%. Moreover, on BRAF G466V, the DC50 lay in the range of 1 to 10 nM and the Dmax is 35 to 70%.

Take `O=C1CC[C@H](N2Cc3cc(C4CCN(CC5CCN(c6ccc(-c7cnc8[nH]cc(C(=O)c9c(F)ccc(NS(=O)(=O)CCO)c9F)c8c7)cc6)CC5)CC4)ccc3C2=O)C(=O)N1` [Compound 282, N-{3-[5-(4-{4-[(4-{2-[(3S)-2,6-dioxopiperidin-3-yl]-1-oxo-2,3-dihydro-1H-isoindol-5-yl}piperidin-1-yl)methyl]piperidin-1-yl}phenyl)-1H-pyrrolo[2,3-b]pyridine-3-carbonyl]-2,4-difluorophenyl}-2-hydroxyethane-1-sulfonamide]: on BRAF V600E, the DC50 lay within 50 to 500 nM and the Dmax lay within 35 to 70%. Moreover, on BRAF G466V, the DC50 is 1 to 10 nM and the Dmax was more than 70%.

On to `COc1c(NS(=O)(=O)N2CC[C@@H](F)C2)ccc(F)c1C(=O)c1c[nH]c2ncc(-c3ccc(N4CCC(CN5CCC(c6ccc7c(c6)CN(C6CCC(=O)NC6=O)C7=O)CC5)CC4)cc3)cc12` (stereo partly drawn) [Compound 283, (3R)-N-[3-(5-{4-[4-({4-[2-(2,6-dioxopiperidin-3-yl)-1-oxo-2,3-dihydro-1H-isoindol-5-yl]piperidin-1-yl}methyl)piperidin-1-yl]phenyl}-1H-pyrrolo[2,3-b]pyridine-3-carbonyl)-4-fluoro-2-methoxyphenyl]-3-fluoropyrrolidine-1-sulfonamide], for which, on BRAF V600E, the DC50 fell in the range of 5 to 50 nM and the Dmax fell in the range of 35 to 70%. Besides, at BRAF G466V, the DC50 was in the range of 1 to 10 nM and the Dmax was more than 70%.

Consider `CNc1cc(-c2cnc3[nH]cc(C(=O)c4c(F)ccc(NS(=O)(=O)N5CC[C@@H](F)C5)c4F)c3c2)cc(NC)c1N1CCC(CN2CCC(c3ccc4c(c3)CN([C@H]3CCC(=O)NC3=O)C4=O)CC2)CC1` [Compound 284, (3R)-N-{3-[5-(4-{4-[(4-{2-[(3S)-2,6-dioxopiperidin-3-yl]-1-oxo-2,3-dihydro-1H-isoindol-5-yl}piperidin-1-yl)methyl]piperidin-1-yl}-3,5-bis(methylamino)phenyl)-1H-pyrrolo[2,3-b]pyridine-3-carbonyl]-2,4-difluorophenyl}-3-fluoropyrrolidine-1-sulfonamide], for which the DC50 on BRAF V600E was in the range of 5 to 50 nM; at BRAF G466V, 1 to 10 nM. Further, the results for the Dmax on BRAF V600E and at BRAF G466V were 35 to 70% and more than 70%, respectively.

Regarding `CNc1cc(-c2cnc3[nH]cc(C(=O)c4c(F)ccc(NS(=O)(=O)N5CC[C@@H](F)C5)c4F)c3c2)cc(NC)c1N1CCC(CN2CCC(c3ccc4c(c3)CN(C3CCC(=O)NC3=O)C4=O)CC2)CC1` (stereo partly drawn) [Compound 285, (3R)-N-[3-(5-{4-[4-({4-[2-(2,6-dioxopiperidin-3-yl)-1-oxo-2,3-dihydro-1H-isoindol-5-yl]piperidin-1-yl}methyl)piperidin-1-yl]-3,5-bis(methylamino)phenyl}-1H-pyrrolo[2,3-b]pyridine-3-carbonyl)-2,4-difluorophenyl]-3-fluoropyrrolidine-1-sulfonamide], the DC50 on BRAF V600E was in the range of 5 to 50 nM; at BRAF G466V, 1 to 10 nM. The Dmax is less than 35% on BRAF V600E and 35 to 70% at BRAF G466V.

For `O=C1CC[C@@H](N2Cc3cc(N4CC(CN5CCN(C6(c7ncc(-c8cnc9[nH]cc(C(=O)c%10c(F)ccc(NS(=O)(=O)N%11CC[C@@H](F)C%11)c%10F)c9c8)cn7)CC6)CC5)C4)ccc3C2=O)C(=O)N1` [Compound 286, (3R)-N-(3-{5-[2-(1-{4-[(1-{2-[(3R)-2,6-dioxopiperidin-3-yl]-1-oxo-2,3-dihydro-1H-isoindol-5-yl}azetidin-3-yl)methyl]piperazin-1-yl}cyclopropyl)pyrimidin-5-yl]-1H-pyrrolo[2,3-b]pyridine-3-carbonyl}-2,4-difluorophenyl)-3-fluoropyrrolidine-1-sulfonamide], at BRAF V600E, the DC50 was 50 to 500 nM and the Dmax is 35 to 70%. Moreover, at BRAF G466V, the DC50 lay in the range of 1 to 10 nM and the Dmax lay within 35 to 70%.

Turning to `CN(c1ncc(-c2cnc3[nH]cc(C(=O)c4c(F)ccc(NS(=O)(=O)N5CC[C@@H](F)C5)c4F)c3c2)cn1)C1CCN(CC2CCN(c3ccc4c(c3)CN([C@H]3CCC(=O)NC3=O)C4=O)CC2)CC1` [Compound 287, (3R)-N-(3-{5-[2-({1-[(1-{2-[(3S)-2,6-dioxopiperidin-3-yl]-1-oxo-2,3-dihydro-1H-isoindol-5-yl}piperidin-4-yl)methyl]piperidin-4-yl}(methyl)amino)pyrimidin-5-yl]-1H-pyrrolo[2,3-b]pyridine-3-carbonyl}-2,4-difluorophenyl)-3-fluoropyrrolidine-1-sulfonamide], the DC50 on BRAF V600E lay within 5 to 50 nM; at BRAF G466V, 1 to 10 nM. The maximal degradation (Dmax) at BRAF V600E and at BRAF G466V was 35 to 70% each time.

For the compound `O=C1CC[C@H](N2Cc3cc(N4CCC(CN5CCN(C6(c7ccc(-c8cnc9[nH]cc(C(=O)c%10c(F)ccc(NS(=O)(=O)N%11CC[C@@H](F)C%11)c%10F)c9c8)cn7)CC6)CC5)CC4)ccc3C2=O)C(=O)N1` [Compound 288, (3R)-N-(3-{5-[6-(1-{4-[(1-{2-[(3S)-2,6-dioxopiperidin-3-yl]-1-oxo-2,3-dihydro-1H-isoindol-5-yl}piperidin-4-yl)methyl]piperazin-1-yl}cyclopropyl)pyridin-3-yl]-1H-pyrrolo[2,3-b]pyridine-3-carbonyl}-2,4-difluorophenyl)-3-fluoropyrrolidine-1-sulfonamide], the DC50 on BRAF V600E was 50 to 500 nM; on BRAF G466V, more than 30 nM. The Dmax is 35 to 70% at BRAF V600E and more than 70% on BRAF G466V.

For `C[C@@H](c1ncc(-c2cnc3[nH]cc(C(=O)c4c(F)ccc(NS(=O)(=O)N5CC[C@@H](F)C5)c4F)c3c2)cn1)N1CCN(CC2CCN(c3ccc4c(c3)CN([C@H]3CCC(=O)NC3=O)C4=O)CC2)CC1` [Compound 289, (3R)-N-[3-(5-{2-[(1S)-1-{4-[(1-{2-[(3S)-2,6-dioxopiperidin-3-yl]-1-oxo-2,3-dihydro-1H-isoindol-5-yl}piperidin-4-yl)methyl]piperazin-1-yl}ethyl]pyrimidin-5-yl}-1H-pyrrolo[2,3-b]pyridine-3-carbonyl)-2,4-difluorophenyl]-3-fluoropyrrolidine-1-sulfonamide], at BRAF V600E, the DC50 was in the range of 50 to 500 nM and the Dmax was 35 to 70%. Also, at BRAF G466V, the DC50 lay within 10 to 30 nM and the Dmax fell in the range of 35 to 70%.

Take `C[C@H](c1ncc(-c2cnc3[nH]cc(C(=O)c4c(F)ccc(NS(=O)(=O)N5CC[C@@H](F)C5)c4F)c3c2)cn1)N1CCN(CC2CCN(c3ccc4c(c3)CN([C@H]3CCC(=O)NC3=O)C4=O)CC2)CC1` [Compound 290, (3R)-N-[3-(5-{2-[(1R)-1-{4-[(1-{2-[(3S)-2,6-dioxopiperidin-3-yl]-1-oxo-2,3-dihydro-1H-isoindol-5-yl}piperidin-4-yl)methyl]piperazin-1-yl}ethyl]pyrimidin-5-yl}-1H-pyrrolo[2,3-b]pyridine-3-carbonyl)-2,4-difluorophenyl]-3-fluoropyrrolidine-1-sulfonamide]: on BRAF V600E, the DC50 was 50 to 500 nM and the Dmax lay within 35 to 70%. Besides, at BRAF G466V, the DC50 was in the range of 1 to 10 nM and the Dmax was in the range of 35 to 70%.

Turning to `O=C1CCC(N2Cc3cc(N4CCC(C5CN(c6ccc(-c7cnc8[nH]cc(C(=O)c9c(F)ccc(NS(=O)(=O)N%10CC[C@@H](F)C%10)c9F)c8c7)cc6)C5)CC4)ccc3C2=O)C(=O)N1` (stereo partly drawn) [Compound 293, (3R)-N-(3-{5-[4-(3-{1-[2-(2,6-dioxopiperidin-3-yl)-1-oxo-2,3-dihydro-1H-isoindol-5-yl]piperidin-4-yl}azetidin-1-yl)phenyl]-1H-pyrrolo[2,3-b]pyridine-3-carbonyl}-2,4-difluorophenyl)-3-fluoropyrrolidine-1-sulfonamide], at BRAF V600E, the DC50 is 50 to 500 nM and the maximal degradation (Dmax) was 35 to 70%. Further, on BRAF G466V, the DC50 was in the range of 1 to 10 nM and the greatest degradation seen (Dmax) is 35 to 70%.

Regarding `O=C1CCC(N2Cc3cc(CCCOCC4CCN(c5ccc(-c6cnc7[nH]cc(C(=O)c8c(F)ccc(NS(=O)(=O)N9CC[C@@H](F)C9)c8F)c7c6)cc5)CC4)ccc3C2=O)C(=O)N1` (stereo partly drawn) [Compound 294, (3R)-N-[3-(5-{4-[4-({3-[2-(2,6-dioxopiperidin-3-yl)-1-oxo-2,3-dihydro-1H-isoindol-5-yl]propoxy}methyl)piperidin-1-yl]phenyl}-1H-pyrrolo[2,3-b]pyridine-3-carbonyl)-2,4-difluorophenyl]-3-fluoropyrrolidine-1-sulfonamide], on BRAF V600E, the DC50 was in the range of 50 to 500 nM and the Dmax fell in the range of 35 to 70%. At BRAF G466V, the DC50 lay in the range of 1 to 10 nM and the greatest degradation seen (Dmax) lay within 35 to 70%.

The values above are taken from patent publication US12180193B2, “Accelerating fibrosarcoma protein degrading compounds and associated methods of use” (Arvinas Operations, Inc., priority 2020, dated 2024).
